Experimental data from ChEMBL document CHEMBL1201862, “PubChem BioAssay data set” (2004).
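How tested: cells in 96-well plates exposed to compound for 48 hours at five concentrations. GI50 marks 50% less growth.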 Calls of active or inactive are those of the source. Rule as the data show it: active = GI50 up to about 1.1 µM and inactive = higher.

Experiments:
Assay in all cases: inhibition of tumour cell growth, NCI panel, 48 h
CAKI-1 = test system: CAKI-1
CCRF-CEM = test system: CCRF-CEM
COLO 205 = test system: COLO 205
HCT-15 = test system: HCT-15
HOP-62 = test system: HOP-62
HT-29 = test system: HT-29
KM12 = test system: KM12
Malme-3M = test system: Malme-3M
NCI-H23 = test system: NCI-H23
NCI-H522 = test system: NCI-H522
OVCAR-3 = test system: OVCAR-3
OVCAR-5 = test system: OVCAR-5
OVCAR-8 = test system: OVCAR-8
RPMI-8226 = test system: RPMI-8226
SF-268 = test system: SF-268
SK-OV-3 = test system: SK-OV-3
SNB-19 = test system: SNB-19
SW-620 = test system: SW-620
U-251 = test system: U-251
UACC-257 = test system: UACC-257

Structure (SMILES) | GI50 (CAKI-1) | GI50 (CCRF-CEM) | GI50 (COLO 205) | GI50 (HCT-15) | GI50 (HOP-62) | GI50 (HT-29) | GI50 (KM12) | GI50 (Malme-3M) | GI50 (NCI-H23) | GI50 (NCI-H522) | GI50 (OVCAR-3) | GI50 (OVCAR-5) | GI50 (OVCAR-8) | GI50 (RPMI-8226) | GI50 (SF-268) | GI50 (SK-OV-3) | GI50 (SNB-19) | GI50 (SW-620) | GI50 (U-251) | GI50 (UACC-257)
Nc1ccn(C2OC(CO[PH](=O)OC3C(CO[PH](=O)OC4C(CO[PH](=O)OC5C(CO[PH](=O)OC6C(CO[PH](=O)OC7C(CO[PH](=O)OC8C(CO[PH](=O)OC9C(CO[PH](=O)OC%10C(CO[PH](=O)OC%11C(CO)OC(n%12ccc(N)nc%12=O)C%11(F)F)OC(n%11ccc(N)nc%11=O)C%10(F)F)OC(n%10ccc(N)nc%10=O)C9(F)F)OC(n9ccc(N)nc9=O)C8(F)F)OC(n8ccc(N)nc8=O)C7(F)F)OC(n7ccc(N)nc7=O)C6(F)F)OC(n6ccc(N)nc6=O)C5(F)F)OC(n5ccc(N)nc5=O)C4(F)F)OC(n4ccc(N)nc4=O)C3(F)F)C(O)C2(F)F)c(=O)n1 (stereo not given) | 0.0316 µM (active) | 0.0172 µM (active) | 0.741 µM (active) | 0.442 µM | 0.0581 µM (active) | 0.112 µM (active) | 5.38 µM (inactive) | 0.391 µM (active) | 0.0423 µM (active) | 1.43 µM (inactive) | 17.1 µM (inactive) | 0.111 µM (active) | 0.0156 µM (active) | 0.0582 µM (active) | 0.0285 µM (active) | 0.979 µM (active) | 0.0259 µM (active) | 0.577 µM (active) | 0.0373 µM (active) | 0.34 µM (active)
O=C(OCCOC(=O)c1ccc2c(c1)C1(SCCS1)c1ccccc1-2)c1ccc2c(c1)C1(SCCS1)c1ccccc1-2 | > 100 µM (inactive) | > 100 µM (inactive) | > 100 µM (inactive) | > 100 µM | > 100 µM (inactive) | > 100 µM (inactive) | > 100 µM (inactive) | > 100 µM (inactive) | > 100 µM (inactive) | > 100 µM (inactive) | > 100 µM (inactive) | > 100 µM (inactive) | > 100 µM (inactive) | > 100 µM (inactive) | > 100 µM (inactive) | > 100 µM (inactive) | > 100 µM (inactive) | > 100 µM (inactive) | > 100 µM (inactive) | > 100 µM (inactive)
O=C1NC(O)CCN1C1OC(CO)C(O)C1O (stereo not given) | > 250 µM (inactive) | > 250 µM (inactive) | > 250 µM (inactive) | > 250 µM | > 228 µM (inactive) | > 250 µM (inactive) | > 250 µM (inactive) | > 250 µM (inactive) | > 250 µM (inactive) | > 216 µM (inactive) | > 250 µM (inactive) | > 92 µM (inactive) | > 250 µM (inactive) | > 250 µM (inactive) | > 250 µM (inactive) | > 250 µM (inactive) | > 250 µM (inactive) | > 250 µM (inactive) | > 79.8 µM (inactive) | > 250 µM (inactive)
CC/C=C\C/C=C\C/C=C\CCCCCCCC(=O)OC [METHYL LINOLENATE] | > 100 µM (inactive) | 45.8 µM (inactive) | 61.1 µM (inactive) | > 100 µM | > 100 µM (inactive) | > 100 µM (inactive) | > 100 µM (inactive) | > 100 µM (inactive) | > 100 µM (inactive) | > 100 µM (inactive) | > 100 µM (inactive) | > 100 µM (inactive) | > 100 µM (inactive) | 99.3 µM (inactive) | > 100 µM (inactive) | > 100 µM (inactive) | > 100 µM (inactive) | > 100 µM (inactive) | > 100 µM (inactive) | > 100 µM (inactive)
